Measured values as given in paper PMC8976226 (Mutagenesis, 2022).
Where a name gives a salt, the structure may show the parent alone. Read-outs that look alike come from different tables or passages of the source.

Columns and labels:
[1] = tested on: human peripheral lymphocytes; settings: cited from earlier work
L5178 TK +/− cell = settings: cited from earlier work
GADD45a gene [2] = test: BlueScreen HC assay; settings: fragrance materials, TK6 cells
mammalian cell = test: In vitro mammalian cell micronucleus test; type: cell-based; settings: overall outcome in current dataset
[3] = tested on: reconstructed skin (EpiDerm™); settings: cited from earlier work
[4] = weight of evidence of all available in vitro and in vivo data
[5] = cited from earlier work
GADD45a gene [6] = settings: published fragrance safety assessment; cited from earlier work
[7] = tested on: Chinese hamster V79 cells; settings: cited from earlier work
[8] = tested on: Chinese hamster lung, ovary, or fibroblast cells; settings: ref RIFM Database, cited from earlier work; for chromosomal aberration assay result: Chinese hamster lung, ovary, or fibroblast cells
[9] = tested on: Salmonella typhimurium, Escherichia coli tester strains; settings: cited from earlier work
mouse = settings: cited from earlier work
mice = settings: cited from earlier work
[10] = tested on: Salmonella typhimurium, Escherichia coli tester strains; test: Bacterial reverse mutation test; type: cell-based; settings: overall outcome

Compound: COc1ccc(COC=O)cc1 [anisyl formate]
- in vitro micronucleus assay result [1]: negative
- mammalian cell line mutagenicity study (MLA/HPRT) result (L5178 TK +/− cell): negative
- BlueScreen HC result (GADD45a gene [2]): negative

Compound: COC1CC2CCC1(C)C2(C)C (stereo not shown) [isobornyl methyl ether]
- in vitro MNT result (mammalian cell): positive
- in vitro micronucleus confirmatory assay result ([1]; confirmatory assay, dose response not observed): increases only at the highest dose level
- in vitro micronucleus study result ([1]; presence of metabolic activation, 4-h time point): positive
- 3D skin micronucleus study result [3]: negative
- BlueScreen HC result (GADD45a gene [2]): negative

Compound: Cc1cccc2nccnc12 [5-methylquinoxaline]
- in vitro MNT result (mammalian cell): positive
- genotoxic potential conclusion (WoE) [4]: devoid of genotoxic activity in vivo
- in vitro micronucleus study result ([1]; 4-h treatment): negative
- in vitro micronucleus study result ([1]; without metabolic activation, 24-h treatment): positive
- in vivo micronucleus assays result ([5]; two assays): negative
- BlueScreen HC result (GADD45a gene [2]): negative

Compound: CCCCCCC(OCC)OCC [1,1-diethoxyheptane]
- BlueScreen HC result (GADD45a gene [6]): negative

Compound: N#C/C=C/c1ccccc1 [cinnamyl nitrile, Cinnamyl nitrile]
- genotoxic potential conclusion (WoE) [4]: lack genotoxic potential in vivo
- in vitro micronucleus result ([7]; Chinese hamster V79 cells): negative
- chromosomal aberration assay result [8]: positive
- BlueScreen HC result (GADD45a gene [2]): negative

Compound: CC(C)C(=O)O [Isobutyric acid]
- Ames test result [9]: negative

Compound: CC(=O)/C=C/C1C(C)=CCCC1(C)C (stereo not drawn) [α-ionone, α-Ionone]
- genotoxic potential conclusion (WoE) [4]: lack genotoxic potential in vivo
- in vitro micronucleus study result ([1]; human peripheral lymphocytes): negative
- chromosomal aberration assay result [8]: positive
- in vivo mouse micronucleus study result (mouse): negative
- BlueScreen HC result (GADD45a gene [2]): negative

Compound: CC(C)C12CCC(C)(O)C1C2 (stereo not shown) [4-thujanol]
- in vitro MNT result (mammalian cell): positive
- in vitro micronucleus study result ([1]; 4-h time point, absence of metabolic activation): positive
- in vivo micronucleus study result (mouse): negative
- BlueScreen HC result (GADD45a gene [2]): negative

Compound: CC12CCCC(C)(CC1)C2=NO [1,5-dimethylbicyclo[3.2.1]octan-8-one-oxime]
- in vitro MNT result (mammalian cell): positive
- genotoxic potential conclusion (WoE) [4]: not genotoxic
- in vitro micronucleus assay result ([1]; 3- and 24- h time points with and without metabolic activation): Positive
- in vivo micronucleus test result (mouse): negative
- BlueScreen HC result (GADD45a gene [2]): negative

Compound: COC(=O)c1ccccc1N [methyl anthranilate, Methyl anthranilate]
- in vitro chromosomal aberration study result ([8]; Chinese hamster fibroblast cell line (B 241)): positive
- chromosomal aberration assay result [8]: positive
- 2-year in vivo carcinogenicity study result (mice): did not show any carcinogenic effects
- BlueScreen HC result (GADD45a gene [2]): negative

Compound: CC(=O)C1CC(C)=CC(C)C1C (stereo not shown) [1-(3,5,6-trimethyl-3-cyclohexen-1-yl)ethan-1-one]
- Ames assay result [10]: positive
- Ames assay result ([9]; Escherichia coli strain WP2uvrA without metabolic activation): positive
- Ames assay result, third confirmatory study ([9]; similar concentrations, E. coli WP2uvrA or TA102): no positive effects
- genotoxic potential conclusion (WoE) [4]: unlikely to have genotoxic potential in vivo
- in vitro micronucleus assay result [1]: negative
- mammalian cell line mutagenicity study (HPRT) result (L5178 TK +/− cell): negative
- BlueScreen HC result (GADD45a gene [2]): negative

Compound: CC(=CC#N)CCc1ccccc1 [3-methyl-5-phenylpent-2-enenitrile]
- in vitro MNT result (mammalian cell): positive
- genotoxic potential conclusion (WoE) [4]: not genotoxic
- in vitro micronucleus assay result ([7]; 4-h time point with metabolic activation): Positive
- in vivo micronucleus test result (mouse): negative
- BlueScreen HC result (GADD45a gene [2]): negative

Compound: COC(=O)CC(C)=O [methyl acetoacetate, Methyl acetoacetate]
- genotoxic potential conclusion (WoE) [4]: lack genotoxic potential in vivo
- in vitro micronucleus result ([1]; human lymphocytes): negative
- chromosomal aberration assay result [8]: positive
- BlueScreen HC result (GADD45a gene [2]): negative

Compound: CC(C)CO [isobutyl alcohol]
- in vivo micronucleus test result [5]: negative
